Assays:
[1] = tested on: male C57BL mice; assay: In vivo stimulation of intestinal growth, 200 nmol/kg (Example 11); conditions: for Sensitivity index Si/Colon: relative to 1559
Experimental: The ability of further compounds to selectively stimulate small intestinal mass, relative to colon mass was determined in male C57BL mice. A similar protocol was used to that described above in Example 10 except that 200 nmol/kg of each compound was administered per day. Thus, individual groups (n=6-10) of mice were given 200 nmol/kg of each compound, s.c, once daily for three consecutive days. Other groups of animals were given either an equimolar dose of [[…]]GLP-2 (reference compound) or vehicle (phosphate buffered saline, pH 7.4; negative controls) in the same dosing regimen. Twenty-four hours after the last dose of compound the mice were sacrificed and the stomach, small intestine and the colon emptied and weighed.

[2] = tested on: male C57BL mice; assay: In vivo stimulation of stomach growth, 200 nmol/kg (Example 12)
Experimental: The effects of the test compounds according to the invention were determined based on the ability of the peptides to selectively increase stomach mass, relative to vehicle control. The ability of the present compounds (ZP2395, ZP2396, ZP2400, ZP2412, ZP2394 and ZP2401) to selectively stimulate stomach mass, relative to colon mass was determined in male C57BL mice. Individual groups (n=6-10) of mice were given 200 nmol/kg of each compound, s.c, once daily for three consecutive days. For comparison purposes other groups of animals were given either an equimolar dose of [[…]]GLP-2 or vehicle (phosphate buffered saline, pH 7.4) in the same dosing regimen. Twenty-four hours after the last dose of compound had been given the mice were sacrificed and the stomach and small intestine (from the pylorus to the ileocaecal junction) emptied and weighed. To correct for slight difference in body weight (BW), the organ mass of the stomach is presented relative to BW. […] To evaluate the differential growth pattern induced by ZP compounds, compared to [[…]]GLP-2, on the stomach, the stomach-colon sensitivity index of compound X was calculated as: (Stomach/Colon)x/Stomach/(Colon)[[…]]GLP-2% Compounds with a stomach/colon sensitivity greater than or equal to 1.05 were considered relatively selective for the stomach.

[3] = 200 nmol/kg s.c. once daily for 3 days
[4] = colon weight relative to body weight, relative to ZP1559
[5] = small intestine weight relative to body weight, relative to ZP1559
[6] = 200 nmol/kg s.c. once daily for 3 days, relative to 1559

| Substance | Colon-BW, compared to 1559 in % [1, 3] | Preferential stimulation of epithelial growth in the small intestine (summary) [1, 3] | SI-BW, compared to 1559 in % [1, 3] | Selectivity for small intestinal mass relative to colon mass (FIG. 6) [1, 3] | Sensitivity index Si/Colon [1, 3] | Colon-BW, compared to 1559 in % [1, 4] | SI-BW, compared to 1559 in % [1, 5] | Sto-BW, compared to 1559 in % [2, 3] | Sensitivity index Stomach/Co [2, 6] | Sensitivity index Stomach/Co ([2]; ratio Stomach-BW / Colon-BW) | Preferential stimulation of epithelial growth in the stomach (summary) [2, 3] | Selectivity for stomach mass relative to colon mass (FIG. 7) [2, 3] | Organ selectivity (FIG. 8, unselective compounds) [1, 3] |
| --- | --- | --- | --- | --- | --- | --- | --- | --- | --- | --- | --- | --- | --- |
| H-HGEGSFSDELATILEALAASDFIAWLIATKITD-NH2 [ZP2417] | 106% | preferentially stimulating epithelial growth in the small intestine | 119% | selectively increase small intestinal mass, relative to colon mass | 1.12 | 106% | 119% | 90% | 0.85 | 0.85 | – | – | – |
| H-HGEGSFSDELATILEALAAADFIAWLISTKITDKKKKKK-NH2 [ZP2384] | 118% | preferentially stimulating epithelial growth in the small intestine | 128% | selectively increase small intestinal mass, relative to colon mass | 1.08 | 118% | 128% | 100% | 0.85 | 0.85 | – | – | – |
| H-HGEGSFSDELFTILEFLAASDFISWLISTKITD-NH2 [ZP2401] | 88% | – | 98% | – | 1.11 | 88% | 98% | 107% | 1.22 | 1.22 | preferentially stimulating epithelial growth in the stomach | selectively increase stomach mass, relative to colon mass | – |
| H-HGEGSFSDELLTILELLAALDFIAWLIATKITDKKKKKK-NH2 [ZP2416] | 92% | – | 89% | – | 0.97 | – | – | 96% | 1.04 | – | – | selectively increase stomach mass, relative to colon mass | unselective for the small intestine, colon or stomach |
| H-HGEGSFSDELATILEALAAADFIAWLIATKITDKKKKKK-NH2 [ZP2402] | 113% | – | 110% | – | 0.97 | – | – | 102% | 0.90 | – | – | – | unselective for the small intestine, colon or stomach |
| H-HGEGSFSDELATILESLAASDFISWLISTKITDKKKKKK-NH2 [ZP2386] | 111% | – | 113% | – | 1.02 | – | – | 95% | 0.86 | – | – | – | unselective for the small intestine, colon or stomach |
| H-HGEGSFSDELATILESLAASDFISWLISTKITD-NH2 [ZP2399] | 103% | preferentially stimulating epithelial growth in the small intestine | 119% | selectively increase small intestinal mass, relative to colon mass | 1.16 | 103% | 119% | 115% | 1.12 | 1.12 | – | – | – |
| H-HGEGSFSDELSTILEALAASDFISWLISTKITDKKKKKK-NH2 [ZP2385] | 95% | preferentially stimulating epithelial growth in the small intestine | 110% | selectively increase small intestinal mass, relative to colon mass | 1.16 | 95% | 110% | 93% | 0.98 | 0.98 | – | – | – |

Reference: patent US10092648B2, “Selective glucagon-like-peptide-2 (GLP-2) analogues” (Zealand Pharma A/S, priority 2006, dated 2018)
